Laboratory results reported in PMC5289073, “Stable expression and functional characterisation of the diamondback moth ryanodine receptor G4946E variant conferring resistance to diamide insecticides” (Scientific Reports, 2015).
Like-named read-outs stand apart in the source and are kept apart here.

Tests used:
[1] = molecular target: T1, P. xylostella G4946E RyR (Plutella xylostella, UniProt K7W8M2, G4900E); test: Calcium fluorescence (Fluo8, FLIPR Tetra), Sf9 cells stably expressing G4946E RyR (Sf9-mRyR); type: cell-based
Method: (§1) Figure 6 Calcium transients in Sf9 cells stably expressing either the P. xylostella WT (●) or the modified (G4946E) RyR (▲) as a function of the diamide concentration. Calcium-dye (Fluo8) fluorescence was measured after (a) flubendiamide-sulfoxide or (b) chlorantraniliprole application as a function of time. The integrated fluorescence signals were plotted against the logarithm of the effector concentration. Data fitting and EC50 calculations were performed with the SigmaPlot v13 software package.
The efficacy of both diamides was reduced dramatically in the Sf9-mRyR cells expressing the G4946E RyR.
(§2) Cells were transfected as described above and subjected to selection with 300 μg ml^−1 zeocin by the dilution method, essentially as described in the manufacturer´s manual (Invitrogen). After a few successive rounds of clonal selection, zeocin-resistant cell clones were tested for functional RyR expression by calcium fluorescence measurements.
(§3) Calcium-dye fluorescence was measured with Fluo8-loaded cells on the FLIPR Tetra instrument (Molecular Devices) in the 384 microtiter plate format. 1.5 × 10[4] cells per well were treated with variable concentrations of effector compounds in a total volume of 80 μl Tyrode´s buffer containing 0.1% DMSO (final concentration) essentially following the established protocols provided with the Fluo8 No-Wash calcium assay kit (Molecular Devices). Excitation and emission wavelengths were set at 490 nm and 525 nm, respectively.

[2] = molecular target: T1, P. xylostella G4946E RyR; type: cell-based; details: 72 h post transfection, caffeine 30 mM, flubendiamide 10 μM
Method: (§4) Figure 3 Fluorescence ratios measured over time in a single calcium release experiment using Fura-2 AM in Sf9 cells transiently expressing (a) WT construct and (b) the G4946E variant 72 h post transfection.
(§5) Sf9 cells (Life technologies) were maintained in Sf-900 II SFM (Gibco-life technologies) serum free media without antibiotic in 30 ml suspension cultures (shaking at 115 rpm) at a constant temperature of 27 °C. Cells used for transfection were seeded into 60 mm cell culture dishes (Corning®), at 2 × 10[6] cells per dish in 3 ml of Sf-900 II SFM, and left to attach for 1 h. Cells were transfected using 3 μg of plasmid DNA, 15 μl Cellfectin II reagent (Life technologies) and 5 μl PLUS™ enhancer reagent (Life technologies) per dish, following the manufacturer’s protocol.
(§6) Fura 2-AM dye (Life technologies, CA, USA) was used for monitoring calcium release in Sf9 cells transfected with the P. xylostella RyR. Approximately 2.5 × 10^5 of un-transfected SF9 cells were allowed to attach to Poly-L-lysine coated coverslips (Sigma, MA, USA) for 1 h and then transfected using Cellfectin™ II. 24 h, 48 h, 72 h and 96 h post transfection the cells were loaded with […] of Fura 2-AM calcium sensitive dye. Cells were left to incubate at 27 °C for 45–60 minutes, followed by 3 washes with 500 μl of fresh un-supplemented Sf-900 II medium. […]

[3] = molecular target: T2, P. xylostella WT RyR (Plutella xylostella, UniProt K7W8M2); test: Calcium fluorescence (Fluo8, FLIPR Tetra), Sf9 cells stably expressing wild-type RyR (Sf9-wtRyR); type: cell-based; details: for Intracellular calcium signal over time (Fluo8): caffeine 30 mM, flubendiamide-sulfoxide 1 μM, chlorantraniliprole 1 μM
Method: Single Sf9 cell clones stably expressing either the wild-type (Sf9-wtRyR) or the G4946E (Sf9-mRyR) RyR channel were isolated after a few cycles of clonal selection. […] This may be explained by compensatory calcium re-uptake mechanisms of the sarco-/endoplasmic reticulum, in particular the Ca^2+-ATPase (SERCA)[32][33].
Fluorescence of the calcium-Fluo8 complex was measured as a function of time.
Measurements of the integrated calcium signals as a function of the diamide concentration, gave characteristic dose-response curves, from which apparent EC50 concentrations for flubendiamide-sulfoxide and chlorantraniliprole were calculated (Fig. 6). These values represent the effector concentration causing half-maximal integrated calcium signals in the cells. […] It should be noted that the EC50 values are not only determined by the compound’s affinities to the RyR, but also by their availability at the intracellular target site as influenced by their physico-chemical properties.
as §1, §2, §3

[4] = system: P. xylostella ROTH WT RyR; test: Fura-2 AM calcium release, Sf9 cells transiently expressing ROTH WT RyR; type: cell-based, Plutella xylostella; details: 72 h post transfection, caffeine 30 mM, flubendiamide sulfoxide 30 μM, flubendiamide 10 μM
Method: as §4, §5, §6

[5] = system: Adoxophyes honmai; parameters: method as in ref 40 = [40]; Uchiyama T. & Ozawa A. Rapid development of resistance to diamide insecticides in the smaller tea tortrix, Adoxophyes honmai (Lepidoptera: Tortricidae), in the tea fields of Shizuoka Prefecture, Japan; details: cited from earlier work
[6] = system: Plutella xylostella; details: cited from earlier work; for Resistance compared to susceptible strains: larvae collected from the Philippines and Thailand in 2012
[7] = system: P. xylostella RyR (thoracic microsomal membranes); details: Philippine strain versus susceptible strain; cited from earlier work
[8] = system: Tuta absoluta; parameters: method as in ref 39 = [39]; Roditakis E. et al. First report of Tuta absoluta resistance to diamide insecticides . J Pest Sci. 88 , 9 – 16 ( 2015 ).; details: T. absoluta population from Sicily (Italy), up; cited from earlier work
[9] = molecular target: T1, P. xylostella G4946E RyR; test: [3H] ryanodine binding, membranes of Sf9 cells transiently expressing G4946E RyR
Method: (§7) Apparent differences in Kd and Bmax with those reported in other studies could likely be explained by the different experimental conditions.
(§8) Figure 4 Tritium labelled ryanodine binding from Sf9 membrane preparations expressing P. xylostella WT and G4946E RyRs.
(§9) For membrane preparation, transfected cells were harvested 48 h post transfection using phosphate buffered saline (PBS), the cells counted and then re-suspended in a hypo-osmotic buffer (20 mM Tris, 1 mM EDTA pH 7.4) at a concentration of 2 × 10[6] cells per ml. The cells were then homogenised and centrifuged at 1,500 g for 15 min at 4 °C to remove cell debris. The supernatant was removed, centrifuged at 100,000 g for 1 h at 4 °C and the membrane pellet re-suspended in a 0.4 M sucrose, 20 mM HEPES solution (20 μl per 2 × 10[6] cells). Protein concentration was determined using Bradford reagent (Bio-Rad) following the manufacturer’s instructions, against Bovine Serum Albumin (BSA) standards.
(§10) Binding reactions were set up in a 96 well flat bottom microtiter plate in a total volume of 250 μl per well. […]

[10] = molecular target: T2, P. xylostella WT RyR; test: [3H] ryanodine binding, membranes of Sf9 cells transiently expressing ROTH WT RyR
Method: as §7, §8, §9, §10

[11] = molecular target: H. virescens RyR; details: cited from earlier work
[12] = molecular target: rabbit skeletal muscle RyR; parameters: method as in PMID 11220363; details: native preparation of rabbit skeletal muscle RyR; cited from earlier work

| Structure (SMILES) | Calcium release response (Fura-2 fluorescence ratio) [2] | Intracellular calcium signal over time (Fluo8) ([3]; Sf9-wtRyR) | Calcium release response (Fura-2 fluorescence ratio) [4] | Resistance ratio [5] [fold] | Resistance compared to susceptible strains [6] | Resistance ratio of EC50 for ryanodine binding stimulation [7] [fold] | Resistance level [8] | other results |
| --- | --- | --- | --- | --- | --- | --- | --- | --- |
| Cc1cc(C(F)(C(F)(F)F)C(F)(F)F)ccc1NC(=O)c1cccc(I)c1C(=O)NC(C)(C)C[S+](C)[O-] (centres unmarked) [flubendiamide sulfoxide] | failed to induce any release of calcium | increased intracellular calcium concentrations that persisted | reversible activation of the calcium release | – | – | – | – | EC50 ([1]; Sf9-mRyR, stable G4946E RyR, Fluo8, ± standard error printed, read-out: EC50 (half-maximal integrated calcium signal)): > 20000 nM; EC50 ([3]; Sf9-wtRyR, stable WT RyR, Fluo8, ± standard error printed, read-out: EC50 (half-maximal integrated calcium signal)): 245 nM |
| CNC(=O)c1cc(Cl)cc(C)c1NC(=O)c1cc(Br)nn1-c1ncccc1Cl [chlorantraniliprole] | – | increased intracellular calcium concentrations that persisted | – | 77.2 | over 200 fold | 159 | up to 2,414 fold | EC50 [1]: 3720 nM; Loss of effect on the RyR channel with G4946E substitution versus WT ([1]; G4946E versus WT, from EC50 values): roughly two orders of magnitude; Resistance ([6]; field populations from China with G4946E): 303–658 fold; EC50 [3]: 17 nM |
| Cn1c(=O)c2c(ncn2C)n(C)c1=O [caffeine] | – | increased rapidly to the maximum in less than one minute after application and then decreased to baseline levels | – | – | – | – | – | – |
| Cc1cc(C(F)(C(F)(F)F)C(F)(F)F)ccc1NC(=O)c1cccc(I)c1C(=O)NC(C)(C)CS(C)(=O)=O [flubendiamide] | did not show any calcium release | – | permanently increased Ca^2+ levels | 105 | over 200 fold | > 450 | ≤ 1,742 fold | – |
| CC(C)[C@@]1(O)[C@@H](OC(=O)c2ccc[nH]2)[C@@]2(O)[C@@]3(C)C[C@]4(O)O[C@@]5([C@H](O)[C@@H](C)CC[C@]35O)[C@@]2(O)[C@@]14C [ryanodine] | – | – | – | – | – | – | – | Kd [9]: 14.7 ± 4.18 nM; Kd [10]: 12.9 ± 4.5 nM; Kd ([11]; H. virescens native membrane preparations, different study): 13.9 ± 3.8 nM; Kd ([11]; native preparation of H. virescens RyR): 3.82 ± 0.39 nM; Kd [12]: 2.04 ± 0.12 nM |
